Laboratory results: patent US11618909B2, “Acid-tolerant Saccharomyces cerevisiae and use thereof” (JIANGNAN UNIVERSITY, priority 2020, dated 2023)

System: mutant MTPfo-4
Assay: Tolerance to other acids by OD600, mutant MTPfo-4
Type: cell-based, Saccharomyces cerevisiae
Conditions: pH 2.44, OD600 over 72 h
Method: To analyze the tolerance of the mutant MTPfo-4 to other acids, 10 acids, including 2 inorganic acids of HCl and H3PO4, and 8 organic acids of lactic acid, malic acid, fumaric acid, succinate acid, tartaric acid, furoic acid, gluconic acid, and citric acid, were added exogenously in the present invention to analyze the acid tolerance of cells. The initial pH was controlled to 2.44. The cells were sampled every 12 h for consecutive 72 h. The acid tolerance of cells was analyzed by determining the OD600. […] The cells were sampled every 12 h for consecutive 72 h. The acid resistance of the cells was analyzed again by determining the OD600.

Row | SMILES | effect of the acid on the mutant MTPfo-4
1 | O=C(O)/C=C/C(=O)O [fumaric acid] | inhibitory effect
2 | O=C(O)c1ccco1 [furoic acid] | inhibitory effect
3 | O=C(O)CCC(=O)O [succinic acid] | inhibitory effect
4 | O=C(O)C(O)C(O)C(=O)O (stereo not shown) [tartaric acid] | inhibitory effect
